Data set [1] concerns Mycobacterium bovis BCG str. ATCC 35743. In words: Antitubercular activity against dormant Mycobacterium bovis BCG ATCC 35743 at 3 ug/ml incubated for 40 mins by XTT Reduction Menadione Assay. In kind it is functional. For orientation: Tetrazolium dyes change colour on reduction, which living cells bring about.
The next data set relates to A549. The experiment in a line: (§1) Cytotoxicity against human A549 cells after 48 hrs by MTT assay. As to conditions: a549, 48 h. The format is cell-based.
A short description of data set [2]: as §1. As to conditions: A549 cells. The format is cell-based.
For data set [3], the system named is Mycobacterium tuberculosis. The experiment in a line: Antitubercular activity against dormant Mycobacterium tuberculosis H37Ra ATCC 25177 incubated for 40 mins by XTT Reduction Menadione Assay. In kind it is functional. As to conditions: H37Ra ATCC 25177, 40 min.
The subject of another data set is Fusarium oxysporum. In words: Antifungal activity against Fusarium oxysporum NCIM 1332 after 48 hrs by agar cup plate method. As to conditions: NCIM 1332, 48 h. In kind it is functional.
Data set [4] concerns Mycobacterium tuberculosis. In words: Antitubercular activity against Mycobacterium tuberculosis H37Ra ATCC 25177 at 10 ug/ml incubated for 40 mins by XTT Reduction Menadione Assay. The format is functional. Conditions: H37Ra ATCC 25177, 40 min, read-out: GI.
Data set [5] concerns Mycobacterium tuberculosis. The experiment in a line: Antitubercular activity against Mycobacterium tuberculosis H37Ra ATCC 25177 at 30 ug/ml incubated for 40 mins by XTT Reduction Menadione Assay. The format is functional. As to conditions: H37Ra ATCC 25177, 40 min, read-out: GI.
For the next data set, the system named is Aspergillus flavus. In words: Antifungal activity against Aspergillus flavus NCIM 539 after 48 hrs by agar cup plate method. The format is functional. As to conditions: NCIM 539, 48 h.
A short description of data set [6]: Cytotoxicity against human PANC1 cells after 48 hrs by MTT assay. The format is cell-based, PANC-1.
The subject of data set [7] is Mycobacterium tuberculosis. In words: Antitubercular activity against Mycobacterium tuberculosis H37Ra ATCC 25177 at 3 ug/ml incubated for 40 mins by XTT Reduction Menadione Assay. The format is functional. Conditions: H37Ra ATCC 25177, 40 min, read-out: GI.
A further data set deals with Staphylococcus aureus. In words: Antibacterial activity against Staphylococcus aureus after 18 hrs by broth dilution method. The format is functional.
The next data set relates to Candida albicans. The experiment in a line: Antifungal activity against Candida albicans NCIM 3471 after 48 hrs by agar cup plate method. As to conditions: NCIM 3471, 48 h. In kind it is functional.
Data set [8] in a line: Cytotoxicity against human THP1 cells after 48 hrs by MTT assay. The format is cell-based, THP-1.
A further data set deals with Escherichia coli. The experiment in a line: Antibacterial activity against Escherichia coli after 18 hrs by broth dilution method. The format is functional. For orientation: In broth dilution the organism is exposed to a series of concentrations in liquid medium.
Data set [9] has as its system Mycobacterium bovis BCG str. ATCC 35743. The experiment in a line: Antitubercular activity against dormant Mycobacterium bovis BCG ATCC 35743 at 30 ug/ml incubated for 40 mins by XTT Reduction Menadione Assay. In kind it is functional.
The subject of another data set is Bacillus subtilis. In words: Antibacterial activity against Bacillus subtilis after 18 hrs by broth dilution method. In kind it is functional.
The subject of another data set is Aspergillus niger. In words: Antifungal activity against Aspergillus niger NCIM 1196 after 48 hrs by agar cup plate method. In kind it is functional. Conditions: NCIM 1196, 48 h.
For the next data set, the system named is Cryptococcus neoformans. In words: Antifungal activity against Cryptococcus neoformans NCIM 576 after 48 hrs by agar cup plate method. The format is functional. Conditions: NCIM 576, 48 h.
Another data set has as its system HeLa. The experiment in a line: (§2) Cytotoxicity against human HeLa cells after 48 hrs by MTT assay. In kind it is cell-based. Conditions: hela, 48 h.
The nature of data set [10]: as §2. The format is cell-based. As to conditions: HeLa cells.
A short description of data set [11]: Antitubercular activity against Mycobacterium bovis BCG ATCC 35743 incubated for 40 mins by XTT Reduction Menadione Assay. Conditions: Mycobacterium tuberculosis variant bovis BCG, ATCC 35743, 40 min. In kind it is functional, Mycobacterium bovis BCG str. ATCC 35743.
The test system of data set [12] is Mycobacterium bovis BCG str. ATCC 35743. The experiment in a line: Antitubercular activity against dormant Mycobacterium bovis BCG ATCC 35743 at 10 ug/ml incubated for 40 mins by XTT Reduction Menadione Assay. The format is functional.
A further data set relates to Pseudomonas fluorescens. In words: Antibacterial activity against Pseudomonas fluorescens after 18 hrs by broth dilution method. In kind it is functional.
Data set [13] has as its system Mycobacterium tuberculosis. The experiment in a line: Antitubercular activity against active Mycobacterium tuberculosis H37Ra ATCC 25177 incubated for 40 mins by XTT Reduction Menadione Assay. Conditions: H37Ra ATCC 25177, 40 min. The format is functional.
Data set [14] has as its system Mycobacterium tuberculosis. The experiment in a line: Antitubercular activity against Mycobacterium tuberculosis H37Ra ATCC 25177 incubated for 40 mins by XTT Reduction Menadione Assay. In kind it is functional. Conditions: H37Ra ATCC 25177, 40 min.

Converted amounts (≈) assume the structure as drawn. Where only a bound is given, the exact number is not on record here.

Here are results for six molecules from ChEMBL document CHEMBL3792317, “Novel tetrazoloquinoline-rhodanine conjugates: Highly efficient synthesis and biological evaluation” (Bioorg Med Chem Lett, 2016).

With `O=C1NC(=S)S/C1=C\c1cc2ccccc2n2nnnc12`, the growth inhibition (GI) is -8.27% in data set [1], -15.7% in data set [9] and -5.07% in data set [12]. In addition, the GI90 is more than 100 µg/mL with A549; more than 100 µg/mL in [6] (panc-1, 48 h); more than 100 µg/mL in data set [8] (thp-1, 48 h); more than 100 µg/mL in the data set with HeLa. For the same molecule, the GI50 (usually the concentration that inhibits growth by half) at 48 h was 79.2 µg/mL (≈ 253 µM) in data set [2], more than 100 µg/mL in [6] (PANC1 cells), more than 100 µg/mL in data set [8] (THP1 cells) and more than 100 µg/mL in data set [10]. Besides, the values for the IC90 in data set [3] and in data set [13] were 162 µg/mL (≈ 515 µM) and more than 250 µg/mL, respectively. The MIC – broadly, the lowest concentration that inhibits growth of the organism – in the data set with Fusarium oxysporum was 150 µg/mL (≈ 479 µM); in the data set with Aspergillus flavus it was 125 µg/mL (≈ 399 µM); in the data set with Staphylococcus aureus, 153 µg/mL (≈ 487 µM); against Candida albicans it was 150 µg/mL (≈ 479 µM); in the data set on Escherichia coli, 212 µg/mL (≈ 677 µM); in the data set on Bacillus subtilis, 204 µg/mL (≈ 652 µM). Also, the MIC with Aspergillus niger is 100 µg/mL (≈ 319 µM); against Cryptococcus neoformans, 75 µg/mL (≈ 239 µM); in data set [11] it was 168 µg/mL (≈ 536 µM); against Pseudomonas fluorescens it was 186 µg/mL (≈ 593 µM); in [14] it was 162 µg/mL (≈ 515 µM). In data set [4], the inhibition of growth at 10 µg/mL came to 71%. Moreover, in data set [5], the inhibition of growth at 30 µg/mL worked out at 51.8%. The inhibition of growth at 3 µg/mL in data set [7] was 34%.

With `Cc1ccc2c(c1)cc(/C=C1\SC(=S)N(CCC(=O)O)C1=O)c1nnnn12`, the growth inhibition (GI) was found to be 16.2% in data set [1], 46.4% in data set [9] and 13.7% in [12]. Further, the MIC with Fusarium oxysporum was determined as 75 µg/mL (≈ 188 µM); against Aspergillus flavus it was 75 µg/mL (≈ 188 µM); in the data set with Candida albicans, 100 µg/mL (≈ 250 µM); against Aspergillus niger it was 25 µg/mL (≈ 62.6 µM); with Cryptococcus neoformans, 50 µg/mL (≈ 125 µM); in data set [11], 51.3 µg/mL (≈ 128 µM). Besides, inhibition of growth in [14] (MIC) required 50.5 µg/mL (≈ 126 µM). In addition, the inhibition of growth at 10 µg/mL in data set [4] was determined as 31.6%. Moreover, the inhibition of growth at 30 µg/mL in data set [5] was found to be 44.7%. In data set [7], the inhibition of growth at 3 µg/mL came to 1.75%.

For the molecule `Cc1cccc2cc(/C=C3\SC(=S)N(CCC(=O)O)C3=O)c3nnnn3c12`, the growth inhibition (GI) in data set [1] is -8.42%; in data set [9], -8.69%; in [12], -11.4%. In addition, the MIC with Fusarium oxysporum was determined as 100 µg/mL (≈ 250 µM); against Aspergillus flavus it was 50 µg/mL (≈ 125 µM); in the data set with Candida albicans, 100 µg/mL (≈ 250 µM); against Aspergillus niger, 75 µg/mL (≈ 188 µM); with Cryptococcus neoformans, 50 µg/mL (≈ 125 µM); in [11] it was 198 µg/mL (≈ 495 µM). In [14], this molecule returned an MIC of 192 µg/mL (≈ 481 µM). Besides, the inhibition of growth at 10 µg/mL in data set [4] was determined as 15.5%. Moreover, in data set [5], the inhibition of growth at 30 µg/mL was 36.9%. Also, the inhibition of growth at 3 µg/mL in [7] is -0.39%.

Consider `CC1(C)S[C@@H]2[C@H](NC(=O)[C@H](N)c3ccccc3)C(=O)N2[C@H]1C(=O)O` [AMPICILLIN], for which the MIC in the data set with Staphylococcus aureus came to 1 µg/mL (≈ 2.86 µM); with Escherichia coli it was 1.46 µg/mL (≈ 4.18 µM); with Bacillus subtilis, 10.3 µg/mL (≈ 29.5 µM); in the data set on Pseudomonas fluorescens it was 4.36 µg/mL (≈ 12.5 µM).

As to `Clc1ccc(COC(Cn2ccnc2)c2ccc(Cl)cc2Cl)c(Cl)c1` (centres undefined) [MICONAZOLE], the MIC with Fusarium oxysporum came to 25 µg/mL (≈ 60.1 µM); in the data set on Aspergillus flavus, 12.5 µg/mL (≈ 30 µM); in the data set on Candida albicans, 25 µg/mL (≈ 60.1 µM); against Aspergillus niger it was 25 µg/mL (≈ 60.1 µM); in the data set with Cryptococcus neoformans it was 25 µg/mL (≈ 60.1 µM).

For `Cc1cccc2cc(/C=C3\SC(=S)N(CC(=O)O)C3=O)c3nnnn3c12`, the results for the growth inhibition (GI) in data set [1], in [9] and in data set [12] were -41.4%, -58.8% and -46.2%, respectively. The MIC in the data set with Fusarium oxysporum came out at 50 µg/mL (≈ 130 µM); with Aspergillus flavus it was 50 µg/mL (≈ 130 µM); in the data set on Staphylococcus aureus, 106 µg/mL (≈ 274 µM); in the data set on Candida albicans, 25 µg/mL (≈ 64.9 µM); against Escherichia coli, 149 µg/mL (≈ 387 µM); in the data set with Bacillus subtilis it was 135 µg/mL (≈ 351 µM). Besides, the MIC with Aspergillus niger was found to be 100 µg/mL (≈ 259 µM); in the data set on Cryptococcus neoformans, 125 µg/mL (≈ 324 µM); in [11], 86 µg/mL (≈ 223 µM); against Pseudomonas fluorescens it was 162 µg/mL (≈ 420 µM); in data set [14], 93.2 µg/mL (≈ 242 µM). For the same molecule, the inhibition of growth at 10 µg/mL in data set [4] came out at 36.8%. Besides, the inhibition of growth at 30 µg/mL in data set [5] is 28.2%. Besides, the inhibition of growth at 3 µg/mL in data set [7] was 44.5%.
